# In US20230248706A1, “METHODS AND COMPOSITIONS FOR THE TREATMENT OF COVID-19 AND ASSOCIATED RESPIRATORY DISTRESS AND MULTI-ORGAN FAILURE, SEPSIS, ACUTE RESPIRATORY DISTRESS SYNDROME, AND CARDIOVASCULAR DISEASES” (priority 2020, published 2023):
# Key:
# LPS-challenged mice [1] = assay: EBA extravasation assay (lung vascular permeability) after LPS challenge; format: in vivo, mouse; conditions: for vascular repair (EBA assay): 96h post-LPS; for vascular repair (EBA flux): 72h post-LPS
# Description: (§1) To induce endotoxemia, mice received a single dose of LPS (0.25-2.5 mg/kg BW, Escherichia coli 055:B5, Santa Cruz, St. Dallas, Tex.) by i.p. injection. The LPS dose was dependent on the aging of the mice (3-9 mo old, 2.5 mg/kg; 19-21 mo. old, 1.0 mg/kg; 25 mo. old, 0.25 mg/kg). All mice were anesthetized with ketamine/xylazine (100/5 mg/kg BW, i.p.) prior to tissue collection. For the survival study, mice were treated with a single dose of LPS (1.5 mg/kg, i.p.) and monitored for 7 days.
# Vascular permeability assessment. The Evans blue dye-conjugated albumin (EBA) extravasation assay was performed as previously described (26, 34). Briefly, mice were retro-orbitally injected with EBA at a dose of 20 mg/kg BW at 30 minutes prior to tissue collection. Lungs were perfused free of blood with PBS, blotted dry and weighed. Next, lung tissues were homogenized in 1 ml PBS and incubated with 2 volumes of formamide at 60° C. for 18 hours. The homogenates were then centrifuged at 10,000×g for 30 minutes. The optical density of the supernatant was determined at 620 nm and 740 nm. The extravasated EBA in lung homogenate was presented as μg of Evans blue dye per g lung tissue.
# Cdc25c, Ccna2, and Ccnb1 = assay: Quantitative RT-PCR of FoxM1 target genes essential for cell cycle progression in lung; format: in vivo, mouse; conditions: aged mice, treated at 24 and 48h post-LPS
# Description: (§2) Molecular analysis. Total RNA was isolated using an RNeasy Mini kit including DNase I digestion (Qiagen, Valencia, Calif.). Following reverse transcription, quantitative RT-PCR analysis was performed using a sequence detection system (ABI ViiA 7 system; Life Technologies, Grand Island, N.Y.). The following primers sets were used for analysis: mouse FoxM1 primers, 5′-[…]-3′ (SEQ ID NO: 1) and 5′-[…]-3′ (SEQ ID NO: 2); mouse cyclophilin primers, 5′-[…]-3′ (SEQ ID NO: 3) and 5′-[…]-3′ (SEQ ID NO: 4). Primers for mouse Cdc25c, Ccna2, Ccnb1, Tnf, Il6, Nos2, and Icam1 were purchased from Qiagen. The mouse gene expression was normalized to cyclophilin.
# LPS-challenged mice [2] = assay: Lung myeloperoxidase (MPO) activity after LPS challenge; format: in vivo, mouse
# Description: as §1
# Myeloperoxidase assay. Following perfusion free of blood, lung tissues were collected and homogenized in 50 mmol/L phosphate buffer. Homogenates were centrifuged at 15,000×g for 20 minutes at 4° C. The pellets were resuspended in phosphate buffer containing 0.5% hexadecyl trimethylammonium bromide and subjected to a cycle of freezing and thawing. Subsequently, the pellets were homogenized and the homogenates were centrifuged again. Absorbance was measured at 460 nm every 15 secs for 3 minutes and data expressed as ΔOD460/min/g lung tissue (26, 34).
# LPS-challenged mice [3] = assay: Survival after LPS challenge; format: in vivo, mouse; conditions: LPS 1.5 mg/kg i.p., treated at 24 and 48h post-LPS
# Description: To induce endotoxemia, mice received a single dose of LPS (0.25-2.5 mg/kg BW, Escherichia coli 055:B5, Santa Cruz, St. Dallas, Tex.) by i.p. injection. […] All mice were anesthetized with ketamine/xylazine (100/5 mg/kg BW, i.p.) prior to tissue collection. […]
# FoxM1 = assay: Quantitative RT-PCR of FoxM1 expression in lung after LPS challenge; format: in vivo, mouse
# Description: as §2
# pulmonary vascular ECs = assay: In vivo BrdU labeling of lung endothelial cell proliferation; set-up: species or system mouse; conditions: aged mice, treated at 24 and 48h post-LPS
# Description: Cell proliferation. At 8 h prior to tissue collection, BrdU (Sigma-Aldrich, St Louis, Mo.) was injected i.p. into mice at 50 mg/kg BW. Mouse lung cryosections were stained overnight with anti-BrdU (1:3, BD Biosciences, San Jose, Calif.) and incubated with Alexa Fluo 488-conjugated secondary antibody (1:200, Life Technologies, Grand Island, N.Y.). Lung vascular ECs were immunostained with anti-vWF (1:300, Sigma-Aldrich, St Louis, Mo.) and anti-CD31 (1:100, BD Biosciences, San Jose, Calif.) antibodies at 4° C. then the sections were incubated with Alexa Fluor 594-conjugated secondary antibodies (1:200, Life Technologies, Grand Island, N.Y.). The nuclei were counterstained with DAPI (Life Technologies, Grand Island, N.Y.). Three consecutive cryosections from each mouse lung were examined, the average number of BrdU+ nuclei was used (24, 34).
# young adult mice = conditions: 1 mg/kg i.p., young adult mice (8-10 weeks old), previous study; cited from earlier work
# IL-6 = assay: Quantitative RT-PCR of IL-6 expression in lung after LPS challenge; format: in vivo, mouse
# Description: as §2
# TNF-α = assay: Quantitative RT-PCR of TNF-α expression in lung after LPS challenge; format: in vivo, mouse; conditions: aged mice (21 mo. old), DMOG at 12 or 24h post-LPS, 72h post-LPS
# Description: as §2
# pro-inflammatory genes = format: in vivo, mouse; conditions: aged mice (21 mo. old), 25 mg/kg oral at 24h post-LPS (FIG. 13 legend)
# Description: as §2
# [4] = system: human lung microvascular ECs (HLMVECs); assay: ROS production (DCF staining) in senescent HLMVECs treated with TNF-α/CHX; conditions: senescent HLMVECs at passage 16, TNF-α and Cycloheximide (CHX) treatment
# Description: (§3) (D) Quantification of ROS production. (E) Representative micrographs of TUNEL staining (green) of human lung ECs.
# (§4) To further understand the pathogenic role of aging-induced NOX2 in promoting inflammatory lung injury in aged mice, we cultured human lung microvascular ECs (HLMVECs) and passaged many times.
# [5] = system: human lung microvascular ECs (HLMVECs); assay: Apoptosis (TUNEL) in senescent HLMVECs treated with TNF-α/CHX; conditions: senescent HLMVECs at passage 16
# Description: as §3, §4
# HIF-response element = assay: High-throughput screening of Prestwick library in stable cell line containing the HIF-response element; format: cell-based; conditions: Prestwick Chemical Library of FDA-approved drugs (1280 compounds)
# [6] = cited from earlier work
# p53 = conditions: in response to DNA damaging agents; cited from earlier work
# NADase = conditions: cited from earlier work
# HDAC = conditions: cited from earlier work
# [7] = young adult mice (3-5 mo. old), LPS 2.5 mg/kg i.p., 0.25, 0.5, and 5 mg/kg i.p. at 4h post-LPS, 24h post-LPS
# [8] = aged mice (21 mo. old), DMOG 8 mg/mouse i.p. at 12 or 24h post-LPS, 72h post-LPS
# [9] = aged mice (21 mo. old), LPS 0.5 mg/kg i.p., 25 mg/kg oral at 24h post-LPS, 72h post-LPS
# [10] = aged mice (21.5 mos. old), LPS 2 mg/kg i.p., 120 mg/kg oral at 2 h post-LPS, 24h post-LPS
# [11] = aged WT mice (20 months), 7 mg/kg i.p. at 1 h prior to LPS, 72h post-LPS
compound,measurement,setting,value
"Nc1ncn([C@H]2CC(O)[C@@H](CO)O2)c(=O)n1 (stereo in doubt) [Decitabine, 5-Aza-2′-deoxycytidine]",vascular repair (EBA assay),"LPS-challenged mice [1]; aged mice (21-22 mos. old), 0.2 mg/kg i.p. at 24 h and 48h post-LPS",normalized vascular repair
same,lung EBA flux,LPS-challenged mice [1]; [7],no effect
same,vascular repair (EBA assay),"LPS-challenged mice [1]; young adult mice (3 mos. old), 0.2 mg/kg i.p. at 24 and 48h post-LPS",didn't promote
same,expression of FoxM1 target genes essential for cell cycle progression,"Cdc25c, Ccna2, and Ccnb1",markedly induced
same,lung MPO activity,"LPS-challenged mice [2]; aged mice (21-22 mos. old), 0.2 mg/kg i.p. at 24 h and 48h post-LPS, 96h post-LPS",returned to basal levels
same,lung MPO activity,LPS-challenged mice [2]; [7],no effect
same,inflammation resolution (MPO assay),"LPS-challenged mice [2]; young adult mice (3 mos. old), 0.2 mg/kg i.p. at 24 and 48h post-LPS, 96h post-LPS",didn't promote
same,mice survived,"LPS-challenged mice [3]; aged (20-22 mos. old) WT mice, monitored for 96h",80%
same,survival of aged Foxm1 KO mice,LPS-challenged mice [3]; aged Foxm1 EC-specific knockout mice,no protective effects
same,FoxM1 expression,"FoxM1; aged mice, treated at 24 and 48h post-LPS, 72h post-LPS, compared to vehicle-treated mice",markedly induced
same,pulmonary vascular EC proliferation (BrdU immunostaining),pulmonary vascular ECs,drastically increased
same,effect on sepsis-induced inflammatory lung injury,young adult mice,no effects
"COC(=O)CNC(=O)C(=O)OC [DMOG, dimethyoxalylglycine]",MPO activity,LPS-challenged mice [2]; [8],returned to basal levels
same,expression of IL-6,"IL-6; aged mice (21 mo. old), DMOG at 12 or 24h post-LPS, 72h post-LPS",markedly reduced
same,increase of FoxM1 expression compared to either basal or non-treated mice,FoxM1; [8],3 fold
same,expression of TNF-α,TNF-α,markedly reduced
Cc1nc(C(=O)NCC(=O)O)c(O)c2ccc(Oc3ccccc3)cc12 [FG-4592],pro-inflammatory cytokine expression,pro-inflammatory genes,marked increase
same,vascular repair (EBA flux),"LPS-challenged mice [1]; aged mice (21 mo. old), LPS 0.5 mg/kg i.p., 25 mg/kg oral at 24h post-LPS",normalized vascular repair
same,MPO activity,LPS-challenged mice [2]; [9],inhibited MPO activity
same,FoxM1 expression,FoxM1; [9],induced FoxM1 expression
"CC(=O)N[C@@H](CS)C(=O)O [NAC, N-Acetylcysteine]",ROS generation,[4],inhibited
same,MPO activity,LPS-challenged mice [2]; [10],attenuated
same,expression of the proinflammatory gene 116,IL-6; [10],reduced to a level similar to young adult mice
same,TNF-α/CHX treatment-induced cell apoptosis,[5],markedly inhibited
Cl.Nc1ccc(/N=N/c2ccccc2)c(N)n1 [Phenazopyridine],vascular repair (EBA flux),"LPS-challenged mice [1]; aged mice (22 mo. old), LPS 1.5 mg/kg i.p., treated at 6h and 24h post-LPS",promote vascular repair
same,HIF activation in library screen,HIF-response element,activators
COCCCOc1ccnc(C[S+]([O-])c2nc3ccccc3[nH]2)c1C (centres unmarked) [Rabeprazole],drug-induced vascular repair (EBA) in Foxm1 EC KO mice,"LPS-challenged mice [1]; Foxm1 EC-specific knockout mice (3-5 mos. old), treated at 6h and 24h post-LPS, 52h post-LPS",inhibited
same,drug-induced vascular repair (EBA) in Hif1a KO mice,"LPS-challenged mice [1]; Hif1a EC-specific knockout mice (4 mos. old), treated at 6h and 24h post-LPS, 52h post-LPS",inhibited
same,MPO activity,"LPS-challenged mice [2]; aged mice (22 mo. old), LPS 1.5 mg/kg i.p., treated at 6h and 24h post-LPS, 72h post-LPS",returned to levels seen in basal mice
same,increase of FoxM1 expression compared to either basal or LPS-treated mice,"FoxM1; aged mice (22 mo. old), treated at 6h and 24h post-LPS, 72h post-LPS",3-6 fold
same,increase of FoxM1 expression compared to either basal or LPS-treated mice,"FoxM1; young adult mice 3-5 mos. old, 18 mg/kg oral at 6h and 24h post-LPS, 56h post-LPS",3 fold
same,HIF activation in library screen,HIF-response element,activators
"Oc1ccc(/C=C/c2cc(O)cc(O)c2)cc1 [Resveratrol, trans-E-resveratrol]",solubility,[6],poor solubility
NC(=O)C1CCCc2c1[nH]c1ccc(Cl)cc21 (centres unmarked) [Selisistat],p53 acetylation,p53,Enhances
same,lung MPO activity,LPS-challenged mice [2]; [11],returned to basal levels
same,IC50,NADase,> 100 µM
same,FoxM1 expression,FoxM1; [11],reactivated FoxM1 expression
same,IC50,HDAC,> 100 µM
